According to publication PMC10674403, “Imperatorin Restores Chemosensitivity of Multidrug-Resistant Cancer Cells by Antagonizing ABCG2-Mediated Drug Transport” (Pharmaceuticals, 2023):

How the values were obtained:
ABCG2 [1] = target: T1, ABCG2 (Homo sapiens, UniProt Q9UNQ0); test: Vanadate-sensitive ATPase stimulation in ABCG2 membrane vesicles (Pi release); also inhibition of PhA efflux in ABCG2-transfected HEK293 cells; assay type: biochemical; design: membrane vesicles derived from ABCG2 baculovirus-infected High Five insect cells
T1 sequence (Q9UNQ0 1-655): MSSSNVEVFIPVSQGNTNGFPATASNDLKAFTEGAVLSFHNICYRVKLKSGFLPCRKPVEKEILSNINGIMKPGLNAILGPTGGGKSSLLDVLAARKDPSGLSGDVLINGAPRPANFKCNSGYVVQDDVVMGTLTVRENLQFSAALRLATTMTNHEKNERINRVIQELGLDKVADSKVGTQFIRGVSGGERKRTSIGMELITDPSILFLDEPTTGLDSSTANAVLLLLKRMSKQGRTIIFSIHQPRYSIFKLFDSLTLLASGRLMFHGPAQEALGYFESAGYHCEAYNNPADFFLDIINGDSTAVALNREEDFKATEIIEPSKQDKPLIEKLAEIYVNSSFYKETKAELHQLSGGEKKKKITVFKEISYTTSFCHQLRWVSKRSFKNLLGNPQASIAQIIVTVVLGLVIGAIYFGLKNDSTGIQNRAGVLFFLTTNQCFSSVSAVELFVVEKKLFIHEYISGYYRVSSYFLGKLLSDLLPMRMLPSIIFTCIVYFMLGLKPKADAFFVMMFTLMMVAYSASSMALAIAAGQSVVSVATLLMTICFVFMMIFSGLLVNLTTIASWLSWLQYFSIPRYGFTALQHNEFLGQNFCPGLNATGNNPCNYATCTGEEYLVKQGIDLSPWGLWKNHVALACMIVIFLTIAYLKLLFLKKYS

ABCG2 [2] = target: T1, ABCG2; test: Fluorescent substrate accumulation/efflux by flow cytometry in ABCG2-expressing versus parental cells; assay type: cell-based; design: human ABCG2-transfected R482-HEK293 cells; S1-MI-80 and H460-MX20 cells

SMILES	EC50 (ABCG2 [1]) [nM]	Fluorescent substrate accumulation/efflux by flow cytometry in ABCG2-expressing (ABCG2 [2])
CC(C)=CCOc1c2occc2cc2ccc(=O)oc12 [IMP, Imperatorin]	~170	
C=Cc1c(C)c2cc3nc(c4c5[nH]c(cc6nc(cc1[nH]2)C(C)=C6CC)c(C)c5C(=O)[C@@H]4C(=O)OC)[C@@H](CCC(=O)O)[C@@H]3C [PhA, pheophorbide A]		ABCG2-mediated efflux of an ABCG2-specific fluorescent substrate PhA
